The assay deals with cos-7 cells. As to the kind of experiment: DNA transfection: luciferase expression relative to Lipofectamine 2000. The format is cell-based. The conditions noted are these: luciferase assay after 48 hours; for Luciferase expression as a percentage of that achieved using Lipofectamine 2000: 300 ng Luciferase DNA per well; for % of the luciferase activity obtained from the use of Lipofectamine 2000: 300 ng DNA per well. An outline of the steps:
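cos-7 cells were transfected with 300 ng/well luciferase DNA complexed with lipid at ratios from 2.5 to 25 w/w. Bright-Glo luminescence was read after 48 hours and converted to ng luciferase by standard curve. Data are percent of the Lipofectamine 2000 control (2.5 w/w).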

Values joined by “and” are separate entries in the source; they are usually repeats but may differ in a detail not shown here. Identical values can stand only once.

With `CCCCCCCCCCCCCCOC(=O)CCN(CCCO)CCC(=O)OCCCCCCCCCCCCCC` [LF20], the “Luciferase expression as a percentage of that achieved using Lipofectamine 2000” value (from here on “Luciferase expression as a percentage”) reads like this: (lipid/DNA 2.5 w/w) 0.2%; (lipid/DNA 5 w/w) 0.4%; (lipid/DNA 10 w/w) 0.3%; (lipid/DNA 15 w/w) 0.2%; (lipid/DNA 20 w/w) 0.1%; (lipid/DNA 25 w/w) 0.1%.

With `CCCCCCCCCCCCCCOC(=O)CCN(CCC(=O)OCCCCCCCCCCCCCC)CCC1CCCN1C` (stereo not drawn) [LF77], the “Luciferase expression as a percentage” value is 3.7% (lipid/DNA 2.5 w/w); 25.1% (lipid/DNA 5 w/w); 28.2% (lipid/DNA 10 w/w); 24.1% (lipid/DNA 15 w/w); 17.0% (lipid/DNA 20 w/w); 22.1% (lipid/DNA 25 w/w).

On to `CCCCCCCCCCOC(=O)CCN(CCC(=O)OCCCCCCCCCC)CC1CCCO1` (stereo not drawn) [LB15], for which the “Luciferase expression as a percentage” value (lipid/DNA 2.5 w/w) is recorded as 0.1%; the “Luciferase expression as a percentage” value (lipid/DNA 5 w/w) stood at 0.1%; the “Luciferase expression as a percentage” value (lipid/DNA 10 w/w) is 0.1%; the “Luciferase expression as a percentage” value (lipid/DNA 15 w/w) is 0.1%; the “Luciferase expression as a percentage” value (lipid/DNA 20 w/w) was found to be 0.1%; the “Luciferase expression as a percentage” value (lipid/DNA 25 w/w) turned out to be 0.1%.

For `CCCCCCCCCCCCCCOC(=O)CCN(CCC(=O)OCCCCCCCCCCCCCC)C(CO)CO` [LF25], the “Luciferase expression as a percentage” value is on record as 0.1% (lipid/DNA 2.5 w/w); 0.2% (lipid/DNA 5 w/w); 0.3% (lipid/DNA 10 w/w); 0.4% (lipid/DNA 15 w/w); 0.9% (lipid/DNA 20 w/w); 1.5% (lipid/DNA 25 w/w).

Take `CCCCCCCCCCCCCCOC(=O)CCN(CCCCCCO)CCC(=O)OCCCCCCCCCCCCCC` [LF36]: the “Luciferase expression as a percentage” value reads like this: (lipid/DNA 2.5 w/w) 0.1%; (lipid/DNA 5 w/w) 0.1%; (lipid/DNA 10 w/w) 0.1%; (lipid/DNA 15 w/w) 0.1%; (lipid/DNA 20 w/w) 0.1%; (lipid/DNA 25 w/w) 0.1%.

For the molecule `CCCCCCCCCCOC(=O)CCN(CCCN(CC)CC)CCC(=O)OCCCCCCCCCC` [LB81], the “Luciferase expression as a percentage” value is reported as 0.4% (lipid/DNA 2.5 w/w); 0.4% (lipid/DNA 5 w/w); 0.2% (lipid/DNA 10 w/w); 0.3% (lipid/DNA 15 w/w); 0.4% (lipid/DNA 20 w/w); 0.5% (lipid/DNA 25 w/w).

As to `CCCCCCCCCCCCCOC(=O)CCN(CCOCCO)CCC(=O)OCCCCCCCCCCCCC` [LE31], the “Luciferase expression as a percentage” value was 1.0% (lipid/DNA 2.5 w/w); 1.0% (lipid/DNA 5 w/w); 0.9% (lipid/DNA 10 w/w); 2.5% (lipid/DNA 15 w/w); 2.9% (lipid/DNA 20 w/w); 9.5% (lipid/DNA 25 w/w).

Consider `CCCCCCCCCCOC(=O)CCN(CC)CCN(CC)CCC(=O)OCCCCCCCCCC` [LB61], for which the “Luciferase expression as a percentage” value is 0.1% (lipid/DNA 2.5 w/w); 0.1% (lipid/DNA 5 w/w); 0.1% (lipid/DNA 10 w/w); 0.1% (lipid/DNA 15 w/w); 0.1% (lipid/DNA 20 w/w); 0.1% (lipid/DNA 25 w/w).

`CCCCCCCCCCCCCCCOC(=O)CC[N+](C)(CCC(=O)OCCCCCCCCCCCCCCC)CCC1CCC[N+]1(C)C.[I-].[I-]` (stereo not drawn) [QG77]: the “Luciferase expression as a percentage” value is listed as 0.5% (lipid/DNA 2.5 w/w); 0.6% (lipid/DNA 5 w/w); 1.5% (lipid/DNA 10 w/w); 5.6% (lipid/DNA 15 w/w); 18.8% (lipid/DNA 20 w/w); 29.5% (lipid/DNA 25 w/w).

Turning to `CCCCCCCCCCCCCCCOC(=O)CCN(CCCN1CCOCC1)CCC(=O)OCCCCCCCCCCCCCCC` [LG91], the “Luciferase expression as a percentage” value (lipid/DNA 2.5 w/w) is 0.2%; the “Luciferase expression as a percentage” value (lipid/DNA 5 w/w) amounted to 0.2%; the “Luciferase expression as a percentage” value (lipid/DNA 10 w/w) is 0.1%; the “Luciferase expression as a percentage” value (lipid/DNA 15 w/w) is given as 0.2%; the “Luciferase expression as a percentage” value (lipid/DNA 20 w/w) stood at 0.1%; the “Luciferase expression as a percentage” value (lipid/DNA 25 w/w) amounted to 0.1%.

Take `CCCCCCCCCCOC(=O)CCN(CCC(=O)OCCCCCCCCCC)CCN1CCCC1` [LB76]: the “Luciferase expression as a percentage” value (lipid/DNA 2.5 w/w) is recorded as 0.1%; the “Luciferase expression as a percentage” value (lipid/DNA 5 w/w) stood at 0.1%; the “Luciferase expression as a percentage” value (lipid/DNA 10 w/w) was determined as 0.1%; the “Luciferase expression as a percentage” value (lipid/DNA 15 w/w) was 0.1%; the “Luciferase expression as a percentage” value (lipid/DNA 20 w/w) is 0.1%; the “Luciferase expression as a percentage” value (lipid/DNA 25 w/w) turned out to be 0.1%.

Regarding `CCCCCCCCCCCCCCCOC(=O)CCN(CCC(=O)OCCCCCCCCCCCCCCC)CCN1CCOCC1` [LG90], the “Luciferase expression as a percentage” value reads like this: (lipid/DNA 2.5 w/w) 0.1% and 0.6%; (lipid/DNA 5 w/w) 0.1% and 0.6%; (lipid/DNA 10 w/w) 0.0% and 0.4%; (lipid/DNA 15 w/w) 0.0% and 0.4%; (lipid/DNA 20 w/w) 0.1% and 0.4%; (lipid/DNA 25 w/w) 0.0% and 0.4%.

On to `CCCCCCCCCCCCCCOC(=O)CCN1CCCN(CCC(=O)OCCCCCCCCCCCCCC)CC1` [LF70], for which the “Luciferase expression as a percentage” value reads like this: (lipid/DNA 2.5 w/w) 0.1%; (lipid/DNA 5 w/w) 0.1%; (lipid/DNA 10 w/w) 0.2%; (lipid/DNA 15 w/w) 0.3%; (lipid/DNA 20 w/w) 0.2%; (lipid/DNA 25 w/w) 0.3%.

For `CCCCCCCCCCOC(=O)CCN(CCCOC)CCC(=O)OCCCCCCCCCC` [LB1], the “Luciferase expression as a percentage” value (lipid/DNA 2.5 w/w) was 0.1%; the “Luciferase expression as a percentage” value (lipid/DNA 5 w/w) is 0.1%; the “Luciferase expression as a percentage” value (lipid/DNA 10 w/w) is reported as 0.1%; the “Luciferase expression as a percentage” value (lipid/DNA 15 w/w) is 0.1%; the “Luciferase expression as a percentage” value (lipid/DNA 20 w/w) is 0.1%; the “Luciferase expression as a percentage” value (lipid/DNA 25 w/w) is 0.2%.

Turning to `CCCCCCCCCCCCCOC(=O)CCN(CCC(=O)OCCCCCCCCCCCCC)CCN(CCO)CCO` [LE86], the “% of the luciferase activity obtained from the use of Lipofectamine 2000” value was 31.1% (2.5 w/w lipid to DNA); 22.7% (5 w/w lipid to DNA); 22.6% (10 w/w lipid to DNA); 2.5% (15 w/w lipid to DNA); 0.0% (20 w/w lipid to DNA); 0.0% (25 w/w lipid to DNA).

In the case of `CCCCCCCCCCOC(=O)CCN(CCC(=O)OCCCCCCCCCC)CC(C)(C)CO` [LB33], the “Luciferase expression as a percentage” value is, setting by setting: (lipid/DNA 2.5 w/w) 0.1%; (lipid/DNA 5 w/w) 0.1%; (lipid/DNA 10 w/w) 0.1%; (lipid/DNA 15 w/w) 0.1%; (lipid/DNA 20 w/w) 0.1%; (lipid/DNA 25 w/w) 0.1%.

For `CCCCCCCCCCCCOC(=O)CCN(CCCN1CCOCC1)CCC(=O)OCCCCCCCCCCCC` [LD91], the “Luciferase expression as a percentage” value worked out at 0.2% (lipid/DNA 2.5 w/w); 0.2% (lipid/DNA 5 w/w); 0.2% (lipid/DNA 10 w/w); 0.2% (lipid/DNA 15 w/w); 0.2% (lipid/DNA 20 w/w); 0.2% (lipid/DNA 25 w/w).

The record behind these values is patent publication US9006487B2, “Amine-containing lipids and uses thereof” (Massachusetts Institute of Technology, priority 2005, dated 2015).
